Reference: US6337330B1, “Antitussives” (priority 1997, dated 2002)

Legend:
[1] = system: Mouse Model of Capsaicin-induced Cough; test: Antitussive action using mouse model of capsaicin-induced cough; format: in vivo
Experimental: Evaluation of Antitussive Action Using Mouse Model of Capsaicin-induced Cough
Capsaicin (30 μM) was sent as aerosol to a cap attached to the head of a mouse by using an ultrasonic nebulizer and an artificial respiratory apparatus through a silicon tube, and inhaled by the mouse to induce coughs. For inhalation of capsaicin, capsaicin was sent by using the artificial respiratory apparatus at a rate of 60 times per minute in a dose of 5 ml at a time.
15 minutes before administration of a medicine, capsaicin was inhaled for 3 minutes, and it was confirmed that coughs were induced during this time. 15 minutes, 60 minutes and 120 minutes after administration of a medicine, capsaicin was inhaled for 3 minutes to measure the number of coughs induced during this time. The antitussive effect was evaluated by determining the inhibition rate shown by the number of coughs after administration of a medicine based on the number of coughs before administration of a medicine. Capsaicin was dissolved in 10% ethanol and a 10% Tween 80 solution, and diluted with physiological saline. The medicine was dissolved in physiological saline, and intraperitoneally administered.

[2] = system: Rat Model of Capsaicin-induced Cough; test: Antitussive action using rat model of capsaicin-induced cough; format: in vivo, SD male rats; settings: 30 minutes after administration, capsaicin 60 μM, versus distilled water group
Source text: Evaluation of Antitussive Action Using Rat Model of Capsaicin-induced Cough
Rat groups each consisting of 5 SD male rats (Charles River Japan) of 7 weeks old were used. The rats not anesthetized were placed in a container comprising two acrylic cylinders including a head and a body. A rubber collar and plastic collar were put on each of the rats, and the head and body of the container were independently provided.
Capsaicin used as a medicine for inducing coughs was aerosolized by an ultrasonic nebulizer, and inhaled by the rats from the front side of the container by using an artificial respiration apparatus. The concentration of capsaicin was 60 μM. In this inhalation, the flow rate of air was 10 ml×70 times/min (700 ml/min). Changes in internal pressure of the closed body box were recorded on a recorder through a differential transducer. Coughs were measured by the changes in internal the body box and visually observing the motions of the rats.
A medicine was diluted with distilled water, and 1 to 10 mg/5 ml/kg was subcutaneously administered.
Each of the rats was fixed by a holder, and 60 minutes after, capsaicin was inhaled for 3 minutes to count the number of coughs. The rats having at least 9 coughs were subjected to examination of a medicine. The rats were administered subcutaneously with a medicine, and fixed by a holder, and 30 minutes after, capsaicin was inhaled for 3 minutes to count the number of coughs. The antitussive action of each of compounds was represented by the inhibition rate shown by the number of coughs of the group in which a medicine was administered based on the number of coughs of the group in which distilled water was administered.

Q: Which melting point does the source give for `COc1cccc([C@@]23CCN(C)C[C@@H]2Cc2cc4ccccc4nc2C3)c1` here?
A: 154 to 155.5 °C

Q: Which results are given for `CN1CC[C@@]2(c3cccc(O)c3)Cc3nc4ccccc4cc3CC2C1` (stereo in doubt) [Compound 2, (4aR, 12aR)-2-methyl-4a-(3-hydroxyphenyl)-1,2,3,4,4a,5,12,12a-octahydro-quinolino[2,3-g]isoquinoline]?
A: time of peak antitussive effect after administration ([1]; 10 μg/kg intraperitoneal): 15 min; antitussive effect 120 minutes after administration ([1]; 10 μg/kg intraperitoneal, 120 minutes after administration): recovered to the same level as a group in which physiological saline was administered; effect of suppressing coughs (inhibition rate of number of coughs) ([1]; 10 μg/kg intraperitoneal, versus physiological saline group, p<0.05 (U test)): significant effect of suppressing coughs; ED50 ([1]; ip, intraperitoneal, fifteen minutes after administration, capsaicin 30 μM inhalation, calculated from FIG. 2, read-out: ED50 value of the antitussive effect): 4.2 µg/kg; Inhibition rate (%) of number of coughs ([2]; 1 mg/kg subcutaneous): 72.5%

Q: Which “Inhibition rate (%) of number of coughs” value ([2]; 10 mg/kg subcutaneous) does the source give for `Oc1cccc([C@@]23CCNCC2Cc2cc4ccccc4nc2C3)c1` (stereo in doubt) [Compound 4, (4aR, 12aR)-4a-(3-hydroxyphenyl)-1,2,3,4,4a,5,12,12a-octahydroquinolino[2,3-g]isoquinoline] here?
A: 34.0%

Q: For `Oc1cccc([C@@]23CCN(CC4CC4)CC2Cc2cc4ccccc4nc2C3)c1` (stereo in doubt) [Compound 6, (4aR, 12aR)-2-cyclopropylmethyl-4a-(3-hydroxyphenyl)-1,2,3,4,4a,5,12,12a-octahydroquinolino[2,3-g]isoquinoline], which “Inhibition rate (%) of number of coughs” value ([2]; 1 mg/kg subcutaneous) is on record?
A: 30.9%

Q: Which “Inhibition rate (%) of number of coughs” value ([2]; 1 mg/kg subcutaneous) does the source give for `Oc1cccc([C@@]23CCN(CCc4ccccc4)C[C@H]2Cc2cc4ccccc4nc2C3)c1` [Compound 7, (4aR, 12aR)-2-(2-phenethyl)-4a-(3-hydroxyphenyl)-1,2,3,4,4a,5,12,12a-octahydroquinolino[2,3-g]isoquinoline] here?
A: 44.3%
